The source made the active and inactive calls. The calls are words filed in the database; no cut-off is given here.
Legend:
MGC-803 [1] = assay: Induction of apoptosis in human MGC803 cells assessed as decrease in ratio of Bcl-2/Bax at 1.5 to 6 ug/ml after 48 hrs by Western blot method; format: functional, cell-based
MGC-803 [2] = assay: Induction of apoptosis in human MGC803 cells assessed as early apoptotic cells at 1.5 ug/ml by annexin V-FITC/propidium iodide staining-based flow cytometric method (reference value: 1.3%); format: functional
MGC-803 [3] = assay: Disruption of mitochondrial membrane potential in human MGC803 cells at 1.5 to 3 ug/ml after 24 hrs by JC1 staining-based fluorescence microscopic method; format: functional, cell-based
MGC-803 [4] = assay: Cell cycle arrest in human MGC803 cells assessed as accumulation at G2/M phase at 1.5 ug/ml after 48 hrs in presence of N-acetyl cysteine by propidium iodide staining-based flow cytometric method (reference value: 17.2 +/- 1.35%); format: functional
MGC-803 [5] = assay: Cell cycle arrest in human MGC803 cells assessed as accumulation at G2/M phase at 3 ug/ml after 48 hrs in presence of N-acetyl cysteine by propidium iodide staining-based flow cytometric method (reference value: 17.2 +/- 1.35%); format: functional
MGC-803 [6] = assay: Induction of apoptosis in human MGC803 cells assessed as viable cells at 1.5 ug/ml in presence of N-acetyl cysteine by annexin V-FITC/propidium iodide staining-based flow cytometric method (reference value: 97.6%); format: functional; conditions: read-out: Activity
MGC-803 [7] = assay: Cell cycle arrest in human MGC803 cells assessed as accumulation at S phase at 3 ug/ml after 48 hrs by propidium iodide staining-based flow cytometric method (reference value: 32.5 +/- 2.25%); format: functional
MGC-803 [8] = assay: Induction of apoptosis in human MGC803 cells assessed as late apoptotic cells at 1.5 ug/ml by annexin V-FITC/propidium iodide staining-based flow cytometric method (reference value: 0.1%); format: functional
MGC-803 [9] = assay: Induction of apoptosis in human MGC803 cells assessed as necrotic cells at 1.5 ug/ml by annexin V-FITC/propidium iodide staining-based flow cytometric method (reference value: 1%); format: functional
MGC-803 [10] = assay: Induction of apoptosis in human MGC803 cells assessed as late apoptotic cells at 1.5 ug/ml in presence of N-acetyl cysteine by annexin V-FITC/propidium iodide staining-based flow cytometric method (reference value: 0.1%); format: functional
MGC-803 [11] = assay: Induction of apoptosis in human MGC803 cells assessed as late apoptotic cells at 3 ug/ml in presence of N-acetyl cysteine by annexin V-FITC/propidium iodide staining-based flow cytometric method (reference value: 0.1%); format: functional
MGC-803 [12] = assay: Cell cycle arrest in human MGC803 cells assessed as accumulation at G0/G1 phase at 1.5 ug/ml after 48 hrs in presence of N-acetyl cysteine by propidium iodide staining-based flow cytometric method (reference value: 52.5 +/- 3.71%); format: functional
MGC-803 [13] = assay: Induction of apoptosis in human MGC803 cells assessed as viable cells at 3 ug/ml in presence of N-acetyl cysteine by annexin V-FITC/propidium iodide staining-based flow cytometric method (reference value: 97.6%); format: functional; conditions: read-out: Activity
MGC-803 [14] = assay: Antiproliferative activity against human MGC803 cells at 16 to 32 ug/ml after 48 hrs by MTT assay relative to control; format: functional
MGC-803 [15] = assay: Induction of apoptosis in human MGC803 cells assessed as viable cells at 3 ug/ml by annexin V-FITC/propidium iodide staining-based flow cytometric method (reference value: 97.6%); format: functional; conditions: read-out: Activity
MGC-803 [16] = assay: Induction of apoptosis in human MGC803 cells assessed as necrotic cells at 3 ug/ml in presence of N-acetyl cysteine by annexin V-FITC/propidium iodide staining-based flow cytometric method (reference value: 1%); format: functional

## C=C1C(=O)[C@]23[C@H](O)[C@H]1C[C@H](O)[C@H]2[C@]12CCCC(C)(C)[C@H]1C[C@H]3O[C@@H]2OCCc1cn(Cc2ccc(Cl)cc2)nn1
MGC-803 [1]
  Activity: Active
MGC-803 [2]
  Activity: 7.8%
MGC-803 [3]
  Activity: Active
MGC-803 [4]
  Activity: 16.1%
MGC-803 [5]
  Activity: 14.8%
MGC-803 [6]
  viability at 1.5 µg/mL: 95%
MGC-803 [7]
  Activity: 29.6%
MGC-803 [8]
  Activity: 0.3%
MGC-803 [9]
  Activity: 0.5%
MGC-803 [10]
  Activity: 0.1%
MGC-803 [11]
  Activity: 0%
MGC-803 [12]
  Activity: 55.4%
MGC-803 [13]
  viability at 3 µg/mL: 94%
MGC-803 [14]
  inhibition (INH): 90%
MGC-803 [15]
  viability at 3 µg/mL: 37.4%
MGC-803 [16]
  Activity: 0.6%

Source: ChEMBL document CHEMBL4229547, “Design, synthesis and biological mechanisms research on 1,2,3-triazole derivatives of Jiyuan Oridonin A” (Bioorg Med Chem, 2018)
